We go through three molecules from patent US9072775B2, “Fluorescent emulsions for optical imaging” (priority 2007, dated 2015).

Structures are written as SMILES.

Data set [1] in a line: Quantum yield of fluorescence relative to a reference standard. Format: physicochemical. To be noted: In solution in MeOH; reference Nile Blue perchlorate in ethanol. How it is done: The quantum yield of fluorescence (Φ) is expressed by the following equation: (Φ)=(number of photons emitted)/(number of photons absorbed).
(§1) It is common practice to determine a quantum yield relative to that of a reference standard, by the techniques known to those skilled in the art. The quantum yield of this formulation was calculated by comparison with a reference standard sample (Nile Blue perchlorate in ethanol, sold by Invitrogen) having a known quantum yield value equal to 0.27. The same measurements (carried out using a Varian spectrophotometer, model Cary 300 and a Perkin Elmer spectrofluorimeter, model LS 50) and calculations were carried out for a solution of DiD fluorophore in methanol (MeOH).

Data set [2] can be described thus: Absorption and emission spectra. Format: physicochemical. The conditions noted are these: In solution in MeOH. How it is done:
as §1

The nature of data set [3]: Fluorescence lifetime from time-resolved fluorescence decay. In kind it is physicochemical. To be noted: pulsed excitation 740 nm. How it is done: The fluorescence decays of the fluorophore free in solution in methanol or encapsulated in the lipid nanoparticles of oil-in-water emulsion type, in suspension in PBS (10 mM, pH 7.3), were measured on a measuring system using a neodymium-vanadate, continuous-wave laser [Millennia Pro, Spectra-Physics, USA], (532 nm, 5 W)-pumped sapphire-titanium laser [Tsunami, Spectra-Physics, USA] (80 MHz, 100 femtoseconds), tunable to a wavelength of 700 nm to 1000 nm. Depending on the operating mode of this device, the laser is injected into a multimode optical fiber, used as excitatory fiber for the sample to be studied. A second (detection) optical fiber collects the fluorescence emitted or the laser scattering via a filtering system. The signal is measured by means of a photomultiplier tube [Hamamatsu, Japan] coupled to a TCSPC counting board [Becker&Hickel, Germany]. The latter is controlled by means of a sampled part (4%) of the laser signal (pulse train) via a rapid photodiode (PD) [Becker&Hickel, Germany] before injection into the optical fiber.
The measurements were carried out using a pulsed excitation wavelength of 740 nm. The fluorescence intensity (in arbitrary units) was measured in order to plot curves reflecting the fluorescence decay (fluorescence intensity (arbitrary units) expressed as a function of time (in ps)); curves not represented. […]

For data set [4] the following is noted: in ethanol; cited from earlier work.

In data set [1], `CCCCCCCCCCCCCCCCCCN1C(=CC=CC=CC2=[N+](CCCCCCCCCCCCCCCCCC)c3ccccc3C2(C)C)C(C)(C)c2ccccc21.[O-][Cl+3]([O-])([O-])[O-]` [DiD, 1,1′-dioctadecyl-3,3,3′,3′-tetramethylindodicarbocyanin perchlorate] had a Quantum yield of 0.29. Moreover, in data set [2], the Emission was 665 nm and the Max. absorption was 644 nm.
As to `CCCCCCCCCCCCCCCCCCN1/C(=C/C=C/C=C/C=C/C2=[N+](CCCCCCCCCCCCCCCCCC)c3ccccc3C2(C)C)C(C)(C)c2ccccc21.[I-]` [DiR, 1,1′-dioctadecyl-3,3,3′,3′-tetramethylindotricarbocyanin iodide], the “Lifetime of the DiR fluorophore in solution in methanol” value in data set [3] stood at 800 ps.
With `CC[N+](CC)=c1ccc2nc3c(cc(N)c4ccccc43)oc-2c1.[O-][Cl+3]([O-])([O-])[O-]` [Nile Blue perchlorate], the “known quantum yield value of reference standard” value in data set [4] was 0.27.
